Measurements published in ChEMBL document CHEMBL1201862, “PubChem BioAssay data set” (2004).
The source made the active and inactive calls.

Columns and labels:
Format in all cases: functional
[1] = molecular target: Phosphorylase b kinase gamma catalytic chain, liver/testis isoform (Homo sapiens, UniProt P15735);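 further: PHKG2 measured as one member of a kinome-wide kinase panel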
[2] = molecular target: Ribosomal protein S6 kinase beta-1 (Homo sapiens, UniProt P23443);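 further: measured as one member of a kinome-wide profiling panel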
[3] = molecular target: Homeodomain-interacting protein kinase 2 (Homo sapiens, UniProt Q9H2X6);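 further: measured within a kinome-wide kinase profiling panel, HIPK2 being one panel member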
[4] = molecular target: Serine/threonine-protein kinase pim-3 (Homo sapiens, UniProt Q86V86);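 further: value obtained as one member of a broad kinase panel profiling effort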
[5] = molecular target: Serine/threonine-protein kinase DCLK1 (Homo sapiens, UniProt O15075);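 further: affinity for DCLK1 (listed as DCAMKL1) measured as one member of a kinome-wide kinase profiling panel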
Serine/threonine-protein kinase DCLK1, sequence (O15075 whole entry): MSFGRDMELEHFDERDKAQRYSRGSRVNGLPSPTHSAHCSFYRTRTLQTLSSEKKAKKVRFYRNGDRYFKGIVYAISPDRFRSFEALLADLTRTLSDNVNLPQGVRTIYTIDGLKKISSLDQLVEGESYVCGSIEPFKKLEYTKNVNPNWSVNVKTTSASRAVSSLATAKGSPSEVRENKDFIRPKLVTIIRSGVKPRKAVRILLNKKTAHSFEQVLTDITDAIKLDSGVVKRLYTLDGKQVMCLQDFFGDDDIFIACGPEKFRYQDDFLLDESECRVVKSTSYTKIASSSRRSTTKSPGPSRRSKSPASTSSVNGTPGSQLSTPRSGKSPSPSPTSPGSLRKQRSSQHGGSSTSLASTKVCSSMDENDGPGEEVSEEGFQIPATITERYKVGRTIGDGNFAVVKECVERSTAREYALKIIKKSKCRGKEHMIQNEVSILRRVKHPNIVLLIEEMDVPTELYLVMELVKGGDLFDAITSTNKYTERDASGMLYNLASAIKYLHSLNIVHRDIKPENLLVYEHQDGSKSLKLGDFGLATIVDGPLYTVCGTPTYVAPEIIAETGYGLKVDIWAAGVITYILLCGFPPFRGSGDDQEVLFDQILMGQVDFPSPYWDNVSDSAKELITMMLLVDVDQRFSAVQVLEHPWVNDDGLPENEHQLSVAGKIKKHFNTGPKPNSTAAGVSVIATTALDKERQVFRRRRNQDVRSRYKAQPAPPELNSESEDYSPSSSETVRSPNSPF

Ribosomal protein S6 kinase beta-1, sequence (P23443 whole entry): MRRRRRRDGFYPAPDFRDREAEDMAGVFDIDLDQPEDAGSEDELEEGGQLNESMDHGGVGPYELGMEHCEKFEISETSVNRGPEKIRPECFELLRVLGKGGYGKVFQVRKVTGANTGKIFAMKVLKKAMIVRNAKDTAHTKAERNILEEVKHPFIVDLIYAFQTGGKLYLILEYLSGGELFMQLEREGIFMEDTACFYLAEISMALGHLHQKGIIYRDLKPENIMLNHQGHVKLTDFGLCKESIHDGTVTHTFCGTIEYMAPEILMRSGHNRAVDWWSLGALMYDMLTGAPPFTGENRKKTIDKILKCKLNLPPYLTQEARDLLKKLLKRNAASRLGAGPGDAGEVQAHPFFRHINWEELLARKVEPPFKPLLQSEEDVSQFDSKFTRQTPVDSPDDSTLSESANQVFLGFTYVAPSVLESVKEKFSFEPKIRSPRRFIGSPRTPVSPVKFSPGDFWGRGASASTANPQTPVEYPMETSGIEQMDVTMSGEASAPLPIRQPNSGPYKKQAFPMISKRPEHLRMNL
Homeodomain-interacting protein kinase 2, sequence (Q9H2X6 whole entry): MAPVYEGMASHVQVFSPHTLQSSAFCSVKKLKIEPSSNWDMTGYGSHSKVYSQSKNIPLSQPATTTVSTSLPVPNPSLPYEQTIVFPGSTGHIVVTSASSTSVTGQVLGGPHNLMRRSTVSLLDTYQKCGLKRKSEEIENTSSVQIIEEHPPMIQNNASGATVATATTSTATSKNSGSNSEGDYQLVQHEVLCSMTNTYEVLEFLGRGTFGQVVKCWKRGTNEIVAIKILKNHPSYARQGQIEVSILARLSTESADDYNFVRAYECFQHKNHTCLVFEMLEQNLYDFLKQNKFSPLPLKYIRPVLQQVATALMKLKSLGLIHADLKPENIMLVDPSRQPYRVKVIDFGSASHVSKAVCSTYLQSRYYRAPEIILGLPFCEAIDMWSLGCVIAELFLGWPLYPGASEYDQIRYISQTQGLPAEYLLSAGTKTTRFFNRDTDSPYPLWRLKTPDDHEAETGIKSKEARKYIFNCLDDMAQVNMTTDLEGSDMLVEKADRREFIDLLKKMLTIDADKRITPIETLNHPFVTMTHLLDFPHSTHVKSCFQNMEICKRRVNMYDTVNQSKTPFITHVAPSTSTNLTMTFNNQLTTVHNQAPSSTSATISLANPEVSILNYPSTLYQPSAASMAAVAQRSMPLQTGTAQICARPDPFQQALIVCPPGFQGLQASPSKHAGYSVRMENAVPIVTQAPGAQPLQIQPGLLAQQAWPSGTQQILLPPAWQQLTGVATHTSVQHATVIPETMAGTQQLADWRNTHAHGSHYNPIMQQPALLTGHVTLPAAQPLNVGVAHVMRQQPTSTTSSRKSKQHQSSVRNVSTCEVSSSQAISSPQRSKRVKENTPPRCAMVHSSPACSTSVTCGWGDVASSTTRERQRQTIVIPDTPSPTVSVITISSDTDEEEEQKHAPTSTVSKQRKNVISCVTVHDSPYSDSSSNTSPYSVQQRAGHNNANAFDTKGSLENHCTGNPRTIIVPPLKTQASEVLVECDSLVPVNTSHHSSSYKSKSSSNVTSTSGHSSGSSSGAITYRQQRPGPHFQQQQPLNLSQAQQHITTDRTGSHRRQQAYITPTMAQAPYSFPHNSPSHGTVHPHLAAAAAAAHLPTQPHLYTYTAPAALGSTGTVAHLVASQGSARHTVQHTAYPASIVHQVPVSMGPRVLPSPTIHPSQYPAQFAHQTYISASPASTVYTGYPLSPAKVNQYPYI
Phosphorylase b kinase gamma catalytic chain, liver/testis isoform, sequence (P15735 whole entry, canonical isoform): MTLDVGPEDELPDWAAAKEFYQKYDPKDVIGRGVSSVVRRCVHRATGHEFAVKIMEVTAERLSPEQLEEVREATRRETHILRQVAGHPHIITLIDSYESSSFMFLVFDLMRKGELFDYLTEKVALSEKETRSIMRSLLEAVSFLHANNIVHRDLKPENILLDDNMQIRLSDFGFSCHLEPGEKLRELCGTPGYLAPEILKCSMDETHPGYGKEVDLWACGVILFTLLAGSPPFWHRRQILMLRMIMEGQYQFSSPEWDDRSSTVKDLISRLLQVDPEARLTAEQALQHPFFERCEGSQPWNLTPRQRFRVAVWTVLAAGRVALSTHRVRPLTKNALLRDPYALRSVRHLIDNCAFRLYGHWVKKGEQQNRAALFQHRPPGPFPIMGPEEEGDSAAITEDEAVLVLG

SMILES: CN1CCC(c2c(O)cc(O)c3c(=O)cc(-c4ccccc4Cl)oc23)C(O)C1 (stereo not given)
- Ki [1]: > 5.01 µM (inactive)
- Ki [2]: > 6.31 µM (inactive)
- Ki [3]: > 3.98 µM (inactive)
- Ki [4]: 1.26 µM (active)
- Ki [5]: > 10 µM (inactive)
